According to the NIST ThermoML archive (doi:10.1021/je200213h):

Key:
[1] = xn = mol fraction of the nth substance listed; settings: 101 kPa, Liquid, Capillary tube (Ostwald / Ubbelohde) method
[2] = 101.33 kPa, Liquid, Capillary tube (Ostwald / Ubbelohde) method

CCCCCl [1-chlorobutane] + CCCCCCC
kinematic viscosity [m2/s], [1]
Settings | 283.15 K | 298.15 K | 313.15 K
x1 = 0.0508 | 5.595e-07 | 4.824e-07 | 4.248e-07
x1 = 0.1017 | 5.632e-07 | 4.857e-07 | 4.278e-07
x1 = 0.1981 | 5.703e-07 | 4.927e-07 | 4.335e-07
x1 = 0.2989 | 5.788e-07 | 5e-07 | 4.396e-07
x1 = 0.4022 | 5.882e-07 | 5.088e-07 | 4.471e-07
x1 = 0.4998 | 5.984e-07 | 5.177e-07 | 4.545e-07
x1 = 0.6008 | 6.102e-07 | 5.278e-07 | 4.624e-07
x1 = 0.6989 | 6.229e-07 | 5.386e-07 | 4.705e-07
x1 = 0.7985 | 6.367e-07 | 5.501e-07 | 4.792e-07
x1 = 0.898 | 6.52e-07 | 5.626e-07 | 4.882e-07
x1 = 0.9498 | 6.608e-07 | 5.692e-07 | 4.935e-07

CCC(C)(C)C [2,2-dimethylbutane]
[2]
Settings | kinematic viscosity [m2/s]
283.15 K | 6.234e-07
298.15 K | 5.206e-07
313.15 K | 4.579e-07

CCC(C)(C)C [2,2-dimethylbutane] + CC(C)(C)Cl
kinematic viscosity [m2/s], [1]
Settings | 283.15 K | 298.15 K | 313.15 K
x1 = 0.0499 | 6.937e-07 | 5.657e-07 | 4.748e-07
x1 = 0.1017 | 6.864e-07 | 5.592e-07 | 4.715e-07
x1 = 0.1983 | 6.729e-07 | 5.493e-07 | 4.664e-07
x1 = 0.3004 | 6.6e-07 | 5.405e-07 | 4.607e-07
x1 = 0.399 | 6.491e-07 | 5.333e-07 | 4.568e-07
x1 = 0.4989 | 6.399e-07 | 5.275e-07 | 4.538e-07
x1 = 0.6017 | 6.32e-07 | 5.225e-07 | 4.522e-07
x1 = 0.7034 | 6.27e-07 | 5.2e-07 | 4.518e-07
x1 = 0.8 | 6.228e-07 | 5.18e-07 | 4.519e-07
x1 = 0.8967 | 6.221e-07 | 5.184e-07 | 4.541e-07
x1 = 0.9504 | 6.224e-07 | 5.19e-07 | 4.556e-07

CCC(C)(C)C [2,2-dimethylbutane] + CC(C)CCl
kinematic viscosity [m2/s], [1]
Settings | 283.15 K | 298.15 K | 313.15 K
x1 = 0.0487 | 5.82e-07 | 4.94e-07 | 4.366e-07
x1 = 0.0994 | 5.816e-07 | 4.941e-07 | 4.365e-07
x1 = 0.1995 | 5.814e-07 | 4.939e-07 | 4.362e-07
x1 = 0.2985 | 5.821e-07 | 4.939e-07 | 4.363e-07
x1 = 0.3993 | 5.834e-07 | 4.942e-07 | 4.366e-07
x1 = 0.5018 | 5.866e-07 | 4.958e-07 | 4.38e-07
x1 = 0.6011 | 5.899e-07 | 4.986e-07 | 4.402e-07
x1 = 0.6985 | 5.953e-07 | 5.025e-07 | 4.439e-07
x1 = 0.7995 | 6.024e-07 | 5.071e-07 | 4.476e-07
x1 = 0.8988 | 6.115e-07 | 5.13e-07 | 4.524e-07
x1 = 0.9479 | 6.158e-07 | 5.163e-07 | 4.542e-07

CCC(C)(C)C [2,2-dimethylbutane] + CCC(C)Cl
kinematic viscosity [m2/s], [1]
Settings | 283.15 K | 298.15 K | 313.15 K
x1 = 0.0448 | 5.266e-07 | 4.621e-07 | 4.07e-07
x1 = 0.0993 | 5.3e-07 | 4.64e-07 | 4.086e-07
x1 = 0.2003 | 5.356e-07 | 4.679e-07 | 4.12e-07
x1 = 0.301 | 5.421e-07 | 4.719e-07 | 4.157e-07
x1 = 0.3993 | 5.494e-07 | 4.761e-07 | 4.2e-07
x1 = 0.4989 | 5.579e-07 | 4.815e-07 | 4.251e-07
x1 = 0.6039 | 5.683e-07 | 4.88e-07 | 4.309e-07
x1 = 0.7002 | 5.793e-07 | 4.949e-07 | 4.368e-07
x1 = 0.8033 | 5.935e-07 | 5.036e-07 | 4.438e-07
x1 = 0.9028 | 6.07e-07 | 5.122e-07 | 4.508e-07
x1 = 0.9518 | 6.147e-07 | 5.165e-07 | 4.546e-07
